Test results reported in ChEMBL document CHEMBL1158302, “Makaluvic acids A and B: novel alkaloids from the marine sponge Zyzzya fuliginosus” (1996).
In brackets after ≈: the same amount, converted by molar mass. Activity calls are given as the source filed them. The rule behind the calls is not given here.

Tested on: P388
Experiment: Cytotoxicity against mouse P388 cells
Format: functional
Conditions: for EC50: read-out: ED50 (the source's name)

`Cn1cnc2c1c(N)nc(=O)n2C` was tested, and the Activity was “inactive”.

`Cn1cc2c3c1C(=O)C(N)=CC3=NCC2` [MAKALUVAMINE A] gave an EC50 of 0.4 µg/mL (≈ 1.99 µM).

For `CN1CCc2c[nH]c(C(=O)O)c2C1=O`, the Activity was “inactive”.

`Cn1cc2c3c1C(=O)C(N/C=C/c1ccc(O)cc1)=CC3=NCC2` [MAKALUVAMINE E] showed an EC50 of 0.6 µg/mL (≈ 1.88 µM).

`Cn1cc2c3c1C(=O)C(NCCc1ccc(O)cc1)=CC3=NCC2` [MAKALUVAMINE K] gave an EC50 of 0.7 µg/mL (≈ 2.18 µM).
